Here are results for 19 molecules from patent US7064120B2, “Tricyclic pyridyl carboxamides and derivatives thereof tocolytic oxytocin receptor antagonists” (Wyeth, priority 2001, dated 2006).

T1 sequence (P30518 whole entry): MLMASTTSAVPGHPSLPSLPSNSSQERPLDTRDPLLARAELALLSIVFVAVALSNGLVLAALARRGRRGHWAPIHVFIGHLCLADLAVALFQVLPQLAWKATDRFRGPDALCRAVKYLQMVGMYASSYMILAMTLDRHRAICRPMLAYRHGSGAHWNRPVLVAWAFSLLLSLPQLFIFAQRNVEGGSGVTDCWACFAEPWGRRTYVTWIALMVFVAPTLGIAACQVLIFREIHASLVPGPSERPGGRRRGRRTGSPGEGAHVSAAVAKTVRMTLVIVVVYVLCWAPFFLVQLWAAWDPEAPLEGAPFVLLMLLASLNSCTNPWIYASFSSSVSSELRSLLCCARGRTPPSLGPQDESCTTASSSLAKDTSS

This assay addresses T1, human vasopressin V2 receptor subtype (Homo sapiens, UniProt P30518).
T1 construct: host or cells: CHO cells, stably transfected (pZeoSV vector)
The assay is described as follows: Vasopressin binding in CHO cell membranes expressing human vasopressin V2 subtype receptors ([3H]arginine vasopressin radioligand binding). To be noted: 100 nM. The protocol: Vasopressin Binding in Chinese Hamster Ovary Cell Membranes Expressing Human Vasopressin V2 Subtype Receptors
Chinese Hamster Ovary (CHO) cells stably transfected with the human V2 subtype receptors were obtained from M. Thibonnier, Case Western Reserve University School of Medicine, Cleveland, Ohio.
The trypsin is removed by aspiration and the cells dislodged by tapping. Cell Culture medium (e.g. 30 mL for 1:30 split) is immediately added and mixed well to inactivate trypsin. 1 mL of detached cells is added to new culture flasks containing fresh Cell Culture medium (e.g. into 25 mL per T-150 flask), and mixed gently. The cells are incubated at 37° C. in 5% CO2. The medium is changed at 3 to 4 day interval (or as appropriate). […] All steps are done under sterile conditions.
The cells are washed twice gently with Hank's Balanced Salt solution (e.g. use 10 mL per T-150 flask). […] The contents are transferred to centrifuge tubes (50 mL) kept in ice bath. All subsequent steps are done at 4° C. The tubes are centrifuged at 300×g for 15 min (1380 rpm on SORVAL, Model RT6000D, using the rotor for 50 mL tubes). The supernatant is discarded and the cells suspended in homogenizing buffer(10 mM Tris-HCl containing 0.25 M sucrose and 1 mM EDTA, pH 7.4) ensuring that the volume of the buffer is about ten times the volume of the cell pellet. The cells are pooled into a centrifuge tube (50 mL) and homogenized with Polytron at setting 6 for 10 sec. The homogenate is transferred into a Potter-Elvjehm homogenizer and homogenized with 3 strokes. The homogenate is centrifuged at 1500×g for 60 min at 4° C. (3100 rpm using SORVAL, model RT6000D, using the rotor for 50 mL tubes). The pellet is discarded. The supernatant is centrifuged at 100,000×g for 60 min. at 4° C. (Beckman L8-80M ultracentrifuge; spin at 37,500 rpm with rotor type 70 Ti for 50 mL tubes; 38,000 rpm with type 80Ti for 15 mL tubes; or 35,800 rpm with rotor type 45Ti). The supernantant is discarded and the pellet suspended in 3 to 4 mL of Tris buffer (50 mM TRIS-HCl, pH 7.4). The protein content is estimated by the Bradford or Lowry method. The volume of the membrane suspension is adjusted with the membrane buffer (50 mM Tris-HCl containing 0.1% BSA and 0.1 mM PMSF) to give 3.0 mg/mL (or as appropriate) of protein. The membranes are aliquoted and stored at −70° C.
In wells of a 96-well format microtiter plate, is added 90, 110 or 130 μL (to make up a final volume of 200 μL) of assay buffer containing 50 mM of Tris-HCl (pH 7.4), […], 1 mg % aprotinin, 1 mg % leupeptin, 2 mg % 1,10-phenanthroline, 10 mg % trypsin inhibitor, and 0.1 mM PMSF. The inhibitors are added on the day of the experiment. The components are mixed at room temperature, and then kept in ice bath following adjustment of the pH to 7.4. […] For vasopressin and other peptide ligands 20 μL of 50% DMSO is added and the assay buffer volume is adjusted accordingly. To each well is added 50 μL of frozen membrane suspension thawed immediately prior to use and diluted in assay buffer to the required concentration (equivalent to 25 to 50 μg of protein/well as needed). 20 μL of 8 nM [^3H]arginine vasopressin ligand in the assay buffer, prepared just before use is added and incubated at room temperature for 60 min. shaking the plate on a mechanical shaker for the first 15 min. The incubation is stopped by rapid filtration of the plate contents followed by wash with ice-cold buffer (50 mM Tris-HCl, pH 7.4) using a cell harvester (Tomtek and Printed filtermat-B filter paper). The filter paper is thoroughly dried (7–12 min. in a microwave oven) and impregnated with MeltiLex B/H melt-on scintillation wax sheets and the radioactivity counted in a betaplate scintillation counter.
Binding data is either reported as percent inhibition at a certain concentration or if an IC50 was calculated, as a nanomolar concentration.
In general, inhibition refers to the change of the read-out against control, counted positive when it falls. Regarding `Cc1ccccc1-c1ccc(C(=O)N2Cc3ccc(C(=O)NCc4ccccn4)n3Cc3ccccc32)cc1` [Example 27, 10-[(2′-Methyl-[1,1′-biphenyl]-4-yl)carbonyl]-N-(2-pyridinylmethyl)-10,11-dihydro-5H-pyrrolo[2,1-c][1,4]benzodiazepine-3-carboxamide], the inhibition at 0.1 µM was 16%. Still for that read-out and setting: the same measure for `O=C(NCc1ccccn1)c1ccc2n1Cc1ccccc1N(C(=O)c1ccc(-c3cccc4ccccc34)cc1Cl)C2` [Example 34, 10-[2-Chloro-4-(naphthalen-1-yl)benzoyl]-N-(2-pyridinylmethyl)-10,11-dihydro-5H-pyrrolo[2,1-c][1,4]benzodiazepine-3-carboxamide]: 5%. Still for that read-out and setting: the same measure for `COc1cc(C(=O)N2Cc3ccc(C(=O)N4CCN(c5ccncc5)CC4)n3Cc3ccccc32)ccc1-n1c(C)ccc1C` [Example 146, {10-[4-(2,5-Dimethyl-1H-pyrrol-1-yl)-3-methoxybenzoyl]-10,11-dihydro-5H-pyrrolo[2,1-c][1,4]benzodiazepin-3-yl}[4-(pyridin-4-yl)-1-piperazinyl]methanone]: 15%; for `COc1ccccc1-c1ccc(C(=O)N2Cc3ccc(C(=O)N(C)CCc4ccncc4)n3Cc3ccccc32)cc1OC` [Example 125, 10-[(2,2′-Dimethoxy-[1,1′-biphenyl]-4-yl)carbonyl]-N-methyl-N-[2-(4-pyridinyl)ethyl]-10,11-dihydro-5H-pyrrolo[2,1-c][1,4]benzodiazepine-3-carboxamide]: -10%. Consider `COc1cc(C(=O)N2Cc3ccc(C(=O)NCCc4ccccn4)n3Cc3ccccc32)ccc1-c1cccc2ccccc12` [Example 57, 10-[3-Methoxy-4-(naphthalen-1-yl)benzoyl]-N-[2-(2-pyridinyl)ethyl]-10,11-dihydro-5H-pyrrolo[2,1-c][1,4]benzodiazepine-3-carboxamide], for which the inhibition at 0.1 µM stood at 33%. In the case of `COc1cc(-c2ccccc2C)c(Cl)cc1C(=O)N1Cc2ccc(C(=O)N(C)Cc3cccnc3)n2Cc2ccccc21` [Example 107, 10-[(6-Chloro-3-methoxy-2′-methyl-[1,1′-biphenyl]-4-yl)carbonyl]-N-methyl-N-(3-pyridinylmethyl)-10,11-dihydro-5H-pyrrolo[2,1-c][1,4]benzodiazepine-3-carboxamide], the inhibition at 0.1 µM came out at 30%. As to `COc1cccc(-c2ccc(C(=O)N3Cc4ccc(C(=O)N(C)CCc5ccncc5)n4Cc4ccccc43)cc2C)c1` [Example 128, 10-[(3′-Methoxy-2-methyl-[1,1′-biphenyl]-4-yl)carbonyl]-N-methyl-N-[2-(4-pyridinyl)ethyl]-10,11-dihydro-5H-pyrrolo[2,1-c][1,4]benzodiazepine-3-carboxamide], the inhibition at 0.1 µM turned out to be 10%. For `COc1cccc(-c2ccc(C(=O)N3Cc4ccc(C(=O)N5CCN(c6ccncc6)CC5)n4Cc4ccccc43)cc2OC)c1` [Example 123, {10-[(2,3′-Dimethoxy-[1,1′-biphenyl]-4-yl)carbonyl]-10,11-dihydro-5H-pyrrolo[2,1-c][1,4]benzodiazepin-3-yl}[4-(4-pyridinyl)-1-piperazinyl]methanone], the inhibition at 0.1 µM worked out at 30%. Turning to `COc1cccc(-c2ccc(C(=O)N3Cc4ccc(C(=O)NCc5ccncc5)n4Cc4ccccc43)cc2OC)c1` [Example 98], the “V2 % inhibition @ 100 nM” value is 10%. As for `COc1cc(C(=O)N2Cc3ccc(C(=O)NCc4ccccn4)n3Cc3ccccc32)ccc1-c1ccccc1C` [Example 28, 10-[(2-Methoxy-2′-methyl-[1,1′-biphenyl]-4-yl)carbonyl]-N-(2-pyridinylmethyl)-10,11-dihydro-5H-pyrrolo[2,1-c][1,4]benzodiazepine-3-carboxamide], the inhibition at 0.1 µM is 20%. On the same count and under the same terms, the same measure for `COc1cc(C(=O)N2Cc3ccc(C(=O)N(C)CCc4ccncc4)n3Cc3ccccc32)ccc1-n1c(C)ccc1C` [Example 147, 10-[4-(2,5-Dimethyl-1H-pyrrol-1-yl)-3-methoxybenzoyl]-N-methyl-N-[2-(pyridin-4-yl)ethyl]-10,11-dihydro-5H-pyrrolo[2,1-c][1,4]benzodiazepine-3-carboxamide]: 21%; for `COc1cccc(-c2ccc(C(=O)N3Cc4ccc(C(=O)NCc5cccnc5)n4Cc4ccccc43)cc2C)c1` [Example 38, 10-[(3′-Methoxy-2-methyl-[1,1′-biphenyl]-4-yl)carbonyl]-N-(3-pyridinylmethyl)-10,11-dihydro-5H-pyrrolo[2,1-c][1,4]benzodiazepine-3-carboxamide]: 21%; for `COc1cc(-c2ccccc2C)c(Cl)cc1C(=O)N1Cc2ccc(C(=O)N3CCN(c4ccncc4)CC3)n2Cc2ccccc21` [Example 119, {10-[(6-Chloro-3-methoxy-2′-methyl-[1,1′-biphenyl]-4-yl)carbonyl]-10,11-dihydro-5H-pyrrolo[2,1-c][1,4]benzodiazepin-3-yl}[4-(4-pyridinyl)-1-piperazinyl]methanone]: 17%. On the same count and under the same terms, the result for `Cc1ccccc1-c1ccc(C(=O)N2Cc3ccc(C(=O)NCc4cccnc4)n3Cc3ccccc32)cc1C` [Example 37, 10-[(2,2′-Dimethyl-[1,1′-biphenyl]-4-yl)carbonyl]-N-(3-pyridinylmethyl)-10,11-dihydro-5H-pyrrolo[2,1-c][1,4]benzodiazepine-3-carboxamide] reads 7%. For `COc1ccccc1-c1ccc(C(=O)N2Cc3ccc(C(=O)NCc4ccccn4)n3Cc3ccccc32)cc1` [Example 26, 10-[(2′-Methoxy-[1,1′-biphenyl]-4-yl)carbonyl]-N-(2-pyridinylmethyl)-10,11-dihydro-5H-pyrrolo[2,1-c][1,4]benzodiazepine-3-carboxamide], the inhibition at 0.1 µM turned out to be 23%.

With `COc1cccc(-c2ccc(C(=O)N3Cc4ccc(C(=O)NCCc5ccccn5)n4Cc4ccccc43)cc2C)c1` [Example 51, 10-[(3′-Methoxy-2-methyl-[1,1′-biphenyl]-4-yl)carbonyl]-N-[2-(2-pyridinyl)ethyl]-10,11-dihydro-5H-pyrrolo[2,1-c][1,4]benzodiazepine-3-carboxamide], the inhibition at 0.1 µM is 16%. On the same count and under the same terms, the same measure for `COc1ccccc1-c1ccc(C(=O)N2Cc3ccc(C(=O)N(C)CCc4ccncc4)n3Cc3ccccc32)cc1C` [Example 126, 10-[(2′-Methoxy-2-methyl-[1,1′-biphenyl]-4-yl)carbonyl]-N-methyl-N-[2-(4-pyridinyl)ethyl]-10,11-dihydro-5H-pyrrolo[2,1-c][1,4]benzodiazepine-3-carboxamide]: 5%. On the same count and under the same terms, the same measure for `Cc1ccccc1-c1ccc(C(=O)N2Cc3ccc(C(=O)NCc4cccnc4)n3Cc3ccccc32)cc1` [Example 40, 10-[(2′-Methyl-[1,1′-biphenyl]-4-yl)carbonyl]-N-(3-pyridinylmethyl)-10,11-dihydro-5H-pyrrolo[2,1-c][1,4]benzodiazepine-3-carboxamide]: 11%; for `COc1ccccc1-c1ccc(C(=O)N2Cc3ccc(C(=O)NCc4ccccn4)n3Cc3ccccc32)cc1OC` [Example 32, 10-[(2,2′-Dimethoxy-[1,1′-biphenyl]-4-yl)carbonyl]-N-(2-pyridinylmethyl)-10,11-dihydro-5H-pyrrolo[2,1-c][1,4]benzodiazepine-3-carboxamide]: 21%.
